Data reported in ChEMBL document CHEMBL4765407, “Design, synthesis and high antitumor potential of new unsymmetrical bisacridine derivatives towards human solid tumors, specifically pancreatic cancers and their unique ability to stabilize DNA G-quadruplexes” (Eur J Med Chem, 2020).

How the values were obtained:
[1] = system: DU-145; test: Cytotoxicity against human DU-145 cells assessed as reduction in cell viability measured after 72 hrs by SRB assay; type: functional, cell-based; details: DU-145, 72 h
[2] = system: HCT-116; test: Cytotoxicity against human HCT-116 cells assessed as reduction in cell viability measured after 72 hrs by SRB assay; type: functional, cell-based; details: HCT-116, 72 h
[3] = system: MCF7; test: Cytotoxicity against human MCF7 cells assessed as reduction in cell viability measured after 72 hrs by SRB assay; type: functional, cell-based; details: MCF7, 72 h
[4] = system: MDA-MB-231; test: Cytotoxicity against human MDA-MB-231 cells assessed as reduction in cell viability measured after 72 hrs by SRB assay; type: functional, cell-based; details: MDA-MB-231, 72 h
[5] = system: PANC-1; test: Cytotoxicity against human PANC-1 cells assessed as reduction in cell viability measured after 72 hrs by SRB assay; type: functional, cell-based; details: PANC-1, 72 h
[6] = system: MIA PaCa-2; test: Cytotoxicity against human MIA PaCa-2 cells assessed as reduction in cell viability measured after 72 hrs by SRB assay; type: functional, cell-based; details: MIA PaCa-2, 72 h
[7] = system: BXPC-3; test: Cytotoxicity against human BXPC-3 cells assessed as reduction in cell viability measured after 72 hrs by SRB assay; type: functional, cell-based; details: BXPC-3, 72 h
[8] = system: ASPC1; test: Cytotoxicity against human ASPC1 cells assessed as reduction in cell viability measured after 72 hrs by SRB assay; type: functional, cell-based; details: ASPC1, 72 h
[9] = system: Capan-2; test: Cytotoxicity against human Capan-2 cells assessed as reduction in cell viability measured after 72 hrs by SRB assay; type: functional, cell-based; details: Capan-2, 72 h
[10] = system: PANC-1; test: Antitumour activity against human PANC-1 cells xenografted in Crl:Nu-Foxnl nu mouse assessed as inhibition of tumour growth at total effective dose of 16 mg/kg, iv measured on day 38; type: functional; details: PANC-1, iv, 912 h, time 38 day, read-out: TGI
[11] = system: PANC-1; test: Antitumour activity against human PANC-1 cells xenografted in Crl:Nu-Foxnl nu mouse assessed as inhibition of tumour growth at total effective dose of 16 mg/kg, iv measured on day 60; type: functional; details: PANC-1, iv, 1440 h, time 60 day, read-out: TGI
[12] = system: Quadruplex DNA; test: Stabilization of 5'-FAM/3'-TAMRA labeled c-Myc promoter G4 quadruplex DNA FPu18 (unknown origin) assessed as change in melting temperature at 10 microM measured after 15 mins by FRET assay; type: nucleic-acid assay
[13] = system: Quadruplex DNA; test: Stabilization of 5'-FAM/3'-TAMRA labeled telomeric G4 quadruplex DNA F21T (unknown origin) assessed as change in melting temperature at 10 microM measured after 15 mins by FRET assay; type: nucleic-acid assay
[14] = system: Quadruplex DNA; test: Stabilization of 5'-FAM/3'-TAMRA labeled K-Ras G4 quadruplex DNA (unknown origin) assessed as change in melting temperature at 10 microM measured after 15 mins by FRET assay; type: nucleic-acid assay
[15] = Stabilization of ds 5'-FAM-d(TATAGCTATA-HEG-TATAGCTATA)-TAMRA-3' (unknown origin) assessed as change in melting temperature at 10 microM measured after 15 mins by FRET assay; details: Homo sapiens
[16] = system: NCI-H460; test: Cytotoxicity against human NCI-H460 cells assessed as reduction in cell viability measured after 72 hrs by SRB assay; type: functional, cell-based; details: NCI-H460, 72 h
[17] = system: BXPC-3; test: Antitumour activity against human BXPC-3 cells xenografted in Crl:Nu-Foxnl nu mouse assessed as inhibition of tumour growth at total effective dose of 160 mg/kg, iv measured on day 36; type: functional; details: BXPC-3, iv, 864 h, time 36 day, read-out: TGI
[18] = system: BXPC-3; test: Antitumour activity against human BXPC-3 cells xenografted in Crl:Nu-Foxnl nu mouse assessed as inhibition of tumour growth at total effective dose of 160 mg/kg, iv measured on day 32; type: functional; details: BXPC-3, iv, 768 h, time 32 day, read-out: TGI
[19] = system: MDA-MB-231; test: Antitumour activity against human MDA-MB-231 cells xenografted in Crl:Nu-Foxnl nu mouse assessed as inhibition of tumour growth at total effective dose of 120 mg/kg, iv measured on day 32; type: functional; details: MDA-MB-231, iv, 768 h, time 32 day, read-out: TGI
[20] = system: PANC-1; test: Antitumour activity against human PANC-1 cells xenografted in Crl:Nu-Foxnl nu mouse assessed as inhibition of tumour growth at total effective dose of 16 mg/kg, iv measured on day 40; type: functional; details: PANC-1, iv, 960 h, time 40 day, read-out: TGI
[21] = system: PANC-1; test: Antitumour activity against human PANC-1 cells xenografted in Crl:Nu-Foxnl nu mouse assessed as inhibition of tumour growth at total effective dose of 120 mg/kg, iv measured on day 37; type: functional; details: PANC-1, iv, 888 h, time 37 day, read-out: TGI
[22] = system: PANC-1; test: Antitumour activity against human PANC-1 cells xenografted in Crl:Nu-Foxnl nu mouse assessed as inhibition of tumour growth at total effective dose of 160 mg/kg, iv measured on day 56; type: functional; details: PANC-1, iv, 1344 h, time 56 day, read-out: TGI
[23] = system: ASPC1; test: Antitumour activity against human ASPC1 cells xenografted in Crl:Nu-Foxnl nu mouse assessed as inhibition of tumour growth at total effective dose of 48 mg/kg, iv measured on day 36; type: functional; details: 864 h, time 36 day, read-out: TGI
[24] = system: PANC-1; test: Antitumour activity against human PANC-1 cells xenografted in Crl:Nu-Foxnl nu mouse assessed as inhibition of tumour growth at total effective dose of 16 mg/kg, iv measured on day 47; type: functional; details: PANC-1, iv, 1128 h, time 47 day, read-out: TGI
[25] = system: PANC-1; test: Antitumour activity against human PANC-1 cells xenografted in Crl:Nu-Foxnl nu mouse assessed as inhibition of tumour growth at total effective dose of 160 mg/kg, iv measured on day 50; type: functional; details: PANC-1, iv, 1200 h, time 50 day, read-out: TGI
[26] = system: BXPC-3; test: Antitumour activity against human BXPC-3 cells xenografted in Crl:Nu-Foxnl nu mouse assessed as inhibition of tumour growth at total effective dose of 40 mg/kg, iv measured on day 34; type: functional; details: BXPC-3, iv, 816 h, time 34 day, read-out: TGI
[27] = system: PANC-1; test: Antitumour activity against human PANC-1 cells xenografted in Crl:Nu-Foxnl nu mouse assessed as inhibition of tumour growth at total effective dose of 8 mg/kg, iv measured on day 52; type: functional; details: PANC-1, iv, 1248 h, time 52 day, read-out: TGI
[28] = system: PANC-1; test: Antitumour activity against human PANC-1 cells xenografted in Crl:Nu-Foxnl nu mouse assessed as inhibition of tumour growth at total effective dose of 80 mg/kg, iv measured on day 56; type: functional; details: PANC-1, iv, 1344 h, time 56 day, read-out: TGI
[29] = system: MIA PaCa-2; test: Antitumour activity against human MIA PaCa-2 cells xenografted in Crl:Nu-Foxnl nu mouse assessed as inhibition of tumour growth at total effective dose of 20 mg/kg, ip measured on day 33; type: functional; details: MIA PaCa-2, ip, 792 h, time 33 day, read-out: TGI
[30] = system: BXPC-3; test: Antitumour activity against human BXPC-3 cells xenografted in Crl:Nu-Foxnl nu mouse assessed as inhibition of tumour growth at total effective dose of 80 mg/kg, iv measured on day 32; type: functional; details: BXPC-3, iv, 768 h, time 32 day, read-out: TGI
[31] = system: PANC-1; test: Antitumour activity against human PANC-1 cells xenografted in Crl:Nu-Foxnl nu mouse assessed as inhibition of tumour growth at total effective dose of 48 mg/kg, iv measured on day 32; type: functional; details: PANC-1, iv, 768 h, time 32 day, read-out: TGI
[32] = Toxicity in BALB/c mouse assessed as effect on body weight at 60 mg/kg, iv administered as single dose measured for 64 days; type: organism-based; details: in vivo, 1536 h, time 64 day
[33] = Toxicity in BALB/c mouse assessed as macroscopic anatomopathological changes at 60 mg/kg, iv administered as single dose measured for 64 days; type: organism-based; details: in vivo, 1536 h, time 64 day

| Compound | IC50 [1] [nM] | IC50 [2] [nM] | IC50 [4] [nM] | IC50 [5] [nM] | IC50 [6] [nM] | IC50 [7] [nM] | IC50 [8] [nM] | IC50 [9] [nM] | ΔTm [12] [°C] | ΔTm [13] [°C] | ΔTm [14] [°C] | ΔTm [15] [°C] | IC50 [16] [nM] | other results |
| --- | --- | --- | --- | --- | --- | --- | --- | --- | --- | --- | --- | --- | --- | --- |
| O=c1c2ccccc2n2cnc3ccc(NCCNc4c5ccccc5nc5cccc([N+](=O)[O-])c45)c1c32 | 40 | 102 | 27 | 37 | 64 | 138 | 86 | 44 | 19.3 | 31.6 | 19.5 | 10.4 |  | IC50 [3]: 82 nM; inhibition in vivo at 16 mg/kg [10]: 60%; inhibition in vivo at 16 mg/kg [11]: 76% |
| Cc1cc(NCCCN(C)CCCNc2ccc3ncn4c5ccccc5c(=O)c2c34)c([N+](=O)[O-])c2cc3ccccc3nc12 | 65 | 65 |  | 98 | 87 | 224 | 1180 |  | 21.9 | 23.3 | 23.7 | 3.4 | 25 | inhibition in vivo at 160 mg/kg [17]: 84%; inhibition in vivo at 160 mg/kg [18]: 47%; inhibition in vivo at 120 mg/kg [19]: 62% |
| Cc1nc2ccc(NCCCN3CCN(CCC(N)c4ccc5nc6ccccc6cc5c4[N+](=O)[O-])CC3)c3c(=O)c4cc(O)ccc4n1c23 (stereo unspecified) | 24 | 27 |  | 39 | 18 | 152 | 151 |  |  |  |  |  |  | inhibition in vivo at 16 mg/kg [20]: 68%; inhibition in vivo at 120 mg/kg [21]: 64%; inhibition in vivo at 160 mg/kg [22]: 69% |
| COc1ccc2c(c1)c(=O)c1c(NCCCN3CCN(CCC(N)c4ccc5nc6ccccc6cc5c4[N+](=O)[O-])CC3)ccc3ncn2c31 (stereo unspecified) | 21 | 28 | 38 | 40 | 36 | 75 | 122 | 27 | 32.8 | 33.3 | 28.3 | 4.6 |  | inhibition in vivo at 48 mg/kg [23]: 32%; inhibition in vivo at 16 mg/kg [24]: 80%; inhibition in vivo at 160 mg/kg [25]: 64%; inhibition in vivo at 40 mg/kg [26]: 63% |
| NC(CCN1CCN(CCCNc2ccc3nnn4c5ccccc5c(=O)c2c34)CC1)c1ccc2nc3ccccc3cc2c1[N+](=O)[O-] (stereo unspecified) | 22 | 22 | 152 | 138 | 41 | 120 | 103 | 33 | 33.2 | 26.1 | 26.6 | 3.9 |  | inhibition in vivo at 8 mg/kg [27]: 39% |
| Cc1cc(NCCCN(C)CCCNc2ccc3ncn4c5ccc(O)cc5c(=O)c2c34)c([N+](=O)[O-])c2cc3ccccc3nc12 | 59 | 40 | 52 | 216 | 59 | 169 | 152 | 52 | 27.6 | 18.3 | 10.7 | 2.8 | 95 | inhibition in vivo at 80 mg/kg [28]: 64%; inhibition in vivo at 20 mg/kg [29]: 55%; inhibition in vivo at 80 mg/kg [30]: 77%; inhibition in vivo at 48 mg/kg [31]: 63%; Activity [32]: Non-Toxic; Activity [33]: Non-Toxic |
